Publication PMC10313808, “Lipoxygenase inhibitory synthetic derivatives of methyl gallate regulate gene expressions of COX-2 and cytokines to reduce animal model arthritis” (Scientific Reports, 2023)
Read-outs that look alike come from different tables or passages of the source. Marks after values point to notes of the source that are not given here.

Assays:
[1] = FCA-induced arthritis: body weight measurement; assay type: in vivo, Sprague–Dawley (SD) rats; details: FCA rats
Experimental: (§1) Chronic inflammation induced by Freund's Complete Adjuvant contains a suspension of heat-killed Mycobacterium tuberculosis in the vehicle (Chondrex, Labex Corporation). 100 μL of FCA (10 mg/mL) was injected intradermally to the left-hand paw of SD rats[42]. […] Induction of inflammation became chronic by 9–12 days and then rats were divided into 7 groups having 6 rats in each group. Everything possible was done to minimize the suffering of experimental animals. Minimum number of rats only were drafted to generate reliable data. 42 rats were randomly allocated into seven groups (6 × 7).
(§2) Group I (n = 6) served as normal rats that received an equal volume of vehicle control. Group II (n = 6) was arthritic model control treated with vehicle only. Group III (n = 6) was arthritic control which received the diclofenac (10 mg.kg^–1). Groups IV (n = 6), V (n = 6), VI (n = 6) and VII (n = 6) were treated with a low and high dose of methyl gallate (20 mg.kg^–1, 40 mg.kg^–1) and MGSD 1 (1 mg.kg^–1, 10 mg.kg^–1). The drugs were orally administered through oral gavage daily in PBS vehicle for 28 days.
The bodyweight of the animals was measured every day after the commencement of the experiment till the end (28th day). The weight change was calculated using the formula: Weightchange%=Wt-Wo/[…], where Wt is the weight of the animal at time t
Wo is the weight of the animal on the initial day.

[2] = system: ankle joints, liver, spleen, and thymus; test: FCA-induced arthritis: histological analysis; assay type: in vivo, Sprague–Dawley (SD) rats; details: FCA rats; for Histology of liver / Histology of spleen: dose not stated; for Histology of thymus: methyl gallate high dose
Experimental: The animals used for the FCA induced arthritis were euthanized at the end of the experiment and the ankle joints were separated from the hind paw and fixed in 10% buffered formalin. Similarly, liver, spleen, and thymus were also dissected carefully and immersed in fixative, and after 24 h each specimen were decalcified in 5% nitric acid, followed by embedding in paraffin wax and 4 µm thickness sections were prepared. These prepared sections were then mounted and stained with hematoxylin and[…] under brightfield compound binocular research microscope at 100X and 400X magnification and inflammation was graded.

COX-2 = test: RT-PCR gene expression in hind paw tissue, COX-2; assay type: in vivo, Sprague–Dawley (SD) rats; details: normalized to GAPDH, vs arthritic control
Experimental: This study aimed to gain insight into the mechanism by which methyl gallate and its derivative influence the chronic inflammatory condition in the rat model. In the present study, the inflammatory pathway genes were identified, and their relative expression was quantified (COX-2 and TNF α). RNA was isolated from the hind paw tissue of rats and its concentration was analyzed through Qubit fluorometer. RNA was isolated by Trizol method and agarose gel electrophoresis performed. After the isolation protocol, complementary DNA was synthesized and followed the quantitative PCR with standard conditions. Primers of the targets were designed in Primer3Plus and primer validation was carried out. PCR annealing temperatures were standardized to amplify the specific genes. All the primer pairs were highly specific and resolved into single bands corresponding to amplification products of expected size on 2% agarose gel electrophoresis. Primer specificity was further confirmed by a single distinct peak on the melt curve. The specificity of primer pairs ensures the sequence quality of respective gene templates.
The relative expression of inflammatory genes was identified through quantitative RT-PCR. […] The concentration of RNA isolated was measured in the Qubit fluorometer with the RNA HS assay kit. cDNA was synthesized by reverse transcription using total RNA (2 μg) as a template. […]

FCA-induced arthritis [3] = details: for SGOT / SGPT / ALP: FCA rats, serum; for liver damage: rat, in vivo
Experimental: as §1, §2
(§3) Blood was drawn from jugular vein[43] and collected in heparinized tubes and used for further analysis. By using Horiba 5-part hematology analyzer the blood parameters like RBC, WBC, neutrophil and hemoglobin were analyzed. Serum parameters were analyzed using Stat Fax autoanalyzer. Serum glutamic pyruvic transaminase (SGPT), serum glutamic oxaloacetic transaminase (SGOT) and alkaline phosphatase (ALP) were determined using standard diagnostic kits (Proton, Accurex).

FCA-induced arthritis [4] = test: FCA-induced arthritis: haematological parameters; assay type: in vivo, Sprague–Dawley (SD) rats; details: FCA rats
Experimental: as §1, §2, §3

[5] = Solubility noted on sample preparation; assay type: physicochemical; details: water

COC(=O)c1cc(O)c(O)c(O)c1 [Methyl gallate]
Percentage of body weight (Mean ± SEM) 9th day ([1]; 20 mg.kg^−1 oral): 9.43 ± 0.84% | Percentage of body weight (Mean ± SEM) 18th day ([1]; 20 mg.kg^−1 oral): 23.61 ± 0.65% | Percentage of body weight (Mean ± SEM) 28th day ([1]; 20 mg.kg^−1 oral): 34.17 ± 0.23 % | Percentage of body weight (Mean ± SEM) 9th day ([1]; 40 mg.kg^−1 oral): 10.34 ± 0.52% | Percentage of body weight (Mean ± SEM) 18th day ([1]; 40 mg.kg^−1 oral): 22.42 ± 0.28% | Percentage of body weight (Mean ± SEM) 28th day ([1]; 40 mg.kg^−1 oral): 30.99 ± 0.23 % | Histology of ankle joints ([2]; 40 mg.kg^-1): synovial space with neutrophil infiltration, although much less than that of arthritic control | Histology of liver [2]: hepatocyte arrays and central sinusoid area were seen to regain normalcy and a few necrotic cells were still visible | Histology of spleen [2]: lesser degree of spleen reversion | Histology of thymus [2]: effective in controlling inflammation-based T-Cell proliferation | COX-2 gene expression (COX-2): significant down regulation of COX-2 | SGOT (FCA-induced arthritis [3]; 20 mg.kg^−1 oral): 243 ± 13.28 IU/L | SGPT (FCA-induced arthritis [3]; 20 mg.kg^−1 oral): 94 ± 3.17 IU/L | SGOT (FCA-induced arthritis [3]; 40 mg.kg^−1 oral): 183 ± 6.38 IU/L | SGPT (FCA-induced arthritis [3]; 40 mg.kg^−1 oral): 102 ± 2.18 IU/L | liver damage (FCA-induced arthritis [3]): did not show any liver damage | Hb (FCA-induced arthritis [4]; 20 mg.kg^−1 oral): 14.2 ± 0.65 g/dL | Lymphocyte (FCA-induced arthritis [4]; 20 mg.kg^−1 oral): 79 ± 0.79% | Neutro phil (FCA-induced arthritis [4]; 20 mg.kg^−1 oral): 11.7 ± 0.25% | RBC (FCA-induced arthritis [4]; 20 mg.kg^−1 oral): 7.47 ± 0.32^# 10^6/mm^3 | WBC (FCA-induced arthritis [4]; 20 mg.kg^−1 oral): 8.3 ± 0.6 10^3/mm^3 | Hb (FCA-induced arthritis [4]; 40 mg.kg^−1 oral): 14.4 ± 0.74 g/dL | Lymphocyte (FCA-induced arthritis [4]; 40 mg.kg^−1 oral): 78.6 ± 1.85% | Neutro phil (FCA-induced arthritis [4]; 40 mg.kg^−1 oral): 12.8 ± 0.4% | RBC (FCA-induced arthritis [4]; 40 mg.kg^−1 oral): 7.87 ± 0.34^# 10^6/mm^3 | WBC (FCA-induced arthritis [4]; 40 mg.kg^−1 oral): 11.25 ± 0.62^# 10^3/mm^3

O=C(O)COc1cc(C(=O)O)cc(OCC(=O)O)c1OCC(=O)O [MGSD 1, 2,2′,2″-((5-carboxybenzene-1,2,3-triyl)tris(oxy)) tri acetic acid]
Percentage of body weight (Mean ± SEM) 9th day ([1]; 1 mg.kg^−1 oral): 13.40 ± 0.26 % | Percentage of body weight (Mean ± SEM) 18th day ([1]; 1 mg.kg^−1 oral): 25.99 ± 51 % | Percentage of body weight (Mean ± SEM) 28th day ([1]; 1 mg.kg^−1 oral): 40.15 ± 0.00 % | Percentage of body weight (Mean ± SEM) 9th day ([1]; 10 mg.kg^−1 oral): 14.47 ± 1.13 % | Percentage of body weight (Mean ± SEM) 18th day ([1]; 10 mg.kg^−1 oral): 30.20 ± 1.57 % | Percentage of body weight (Mean ± SEM) 28th day ([1]; 10 mg.kg^−1 oral): 38.44 ± 1.81 % | Histology of ankle joints ([2]; 10 mg.kg^-1): reduced oedema formation and neutrophil infiltration was found very low | Histology of liver [2]: central sinusoid visible and hepatic array of cells normal | Histology of spleen [2]: more efficient in controlling the inflammatory response than methyl gallate and diclofenac | Histology of thymus [2]: more effective than the parent compound in reverting inflammation-based T-Cell proliferation | COX-2 gene expression (COX-2): significant down regulation of COX-2 | solubility [5]: soluble in water | ALP (FCA-induced arthritis [3]; 1 mg.kg^−1 oral): 435 ± 72.16 | SGOT (FCA-induced arthritis [3]; 1 mg.kg^−1 oral): 162 ± 7.57 IU/L | SGPT (FCA-induced arthritis [3]; 1 mg.kg^−1 oral): 85 ± 2.60 IU/L | ALP (FCA-induced arthritis [3]; 10 mg.kg^−1 oral): 309 ± 54.42 | SGOT (FCA-induced arthritis [3]; 10 mg.kg^−1 oral): 179 ± 3.52 IU/L | SGPT (FCA-induced arthritis [3]; 10 mg.kg^−1 oral): 82 ± 1.73 IU/L | liver damage (FCA-induced arthritis [3]): did not show any liver damage | Hb (FCA-induced arthritis [4]; 1 mg.kg^−1 oral): 14.8 ± 0.42 g/dL | Lymphocyte (FCA-induced arthritis [4]; 1 mg.kg^−1 oral): 75.8 ± 0.21% | Neutro phil (FCA-induced arthritis [4]; 1 mg.kg^−1 oral): 11.6 ± 0.76% | RBC (FCA-induced arthritis [4]; 1 mg.kg^−1 oral): 6.93 ± 0.18^# 10^6/mm^3 | WBC (FCA-induced arthritis [4]; 1 mg.kg^−1 oral): 9.3 ± 0.48^# 10^3/mm^3 | Hb (FCA-induced arthritis [4]; 10 mg.kg^−1 oral): 14.2 ± 0.26 g/dL | Lymphocyte (FCA-induced arthritis [4]; 10 mg.kg^−1 oral): 75.9 ± 3.44% | Neutro phil (FCA-induced arthritis [4]; 10 mg.kg^−1 oral): 13.4 ± 0.23% | RBC (FCA-induced arthritis [4]; 10 mg.kg^−1 oral): 7.075 ± 0.37^# 10^6/mm^3 | WBC (FCA-induced arthritis [4]; 10 mg.kg^−1 oral): 8.45 ± 0.98* 10^3/mm^3
